From article PMC6456166, “Mitochondrial type II NADH dehydrogenase of Plasmodium falciparum (PfNDH2) is dispensable in the asexual blood stages” (PLoS ONE, 2019)

Target: T1, cytochrome bc1 complex (cytochrome b, cyt b) (Plasmodium falciparum, UniProt Q02768)
T1 construct: gene MT-CYB; native bc1 complex in mitochondria-enriched preparations from D10 WT and ΔPfNDH2 parasites; with other subunits of the bc1 complex (Complex III)
T1 sequence (Q02768 1-376): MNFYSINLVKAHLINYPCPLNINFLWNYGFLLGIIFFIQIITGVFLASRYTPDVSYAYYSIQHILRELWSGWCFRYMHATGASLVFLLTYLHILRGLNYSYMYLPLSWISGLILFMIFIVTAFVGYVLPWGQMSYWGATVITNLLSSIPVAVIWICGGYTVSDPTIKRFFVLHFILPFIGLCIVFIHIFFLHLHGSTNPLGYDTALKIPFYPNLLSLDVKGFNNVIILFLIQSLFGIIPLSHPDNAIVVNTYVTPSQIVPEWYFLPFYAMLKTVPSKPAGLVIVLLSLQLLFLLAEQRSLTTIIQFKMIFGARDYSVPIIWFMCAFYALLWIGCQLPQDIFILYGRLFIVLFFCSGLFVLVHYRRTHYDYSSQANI
Test: ubiquinol-cytochrome c reductase assay in isolated parasite mitochondria ([…] nm), dose-dependent inhibition in WT and ΔPfNDH2
Assay type: cell-based

## CCCCCCCCCCCCc1cc(=O)c2ccccc2n1O [HDQ, 1-hydroxy-2-dodecyl-4(1H) quinolone]
  ubiquinol-cytochrome c reductase assay in isolated parasite mitochondria (550 nm): HDQ and CK-2-68 inhibited the ubiquinol-cytochrome c reductase activity in the mitochondria of ΔPfNDH2 and WT
